Key:
[1] = test system: 3T3-L1 adipocytes; assay: cAMP levels in 3T3-L1 adipocytes; assay type: cell-based
Experimental: (§1) (A) Glycerol release from 3T3-L1 adipocytes treated with or without different concentrations of TNFα as indicated for 24 hr followed by treatment with or without 10 μM ISO or 50 μM FSK. (B) cAMP levels from 3T3-L1 adipocytes treated with or without 100 ng/ml TNFα for 24 hr followed by treatment with or without 10 μM ISO or 50 μM FSK in the presence or absence of pretreatment of 50 μM Amlexanox (Am). (C) cAMP levels from 3T3-L1 adipocytes treated with or without 100 ng/ml TNFα for 24 hr followed by treatment with or without 50 μM FSK in the presence or absence of pretreatment of 1 μM CAY10576 (CAY). (D) Immunoblots of whole cell lysates from 3T3-L1 adipocytes treated with or without different concentrations of TNFα as same as FIG. 2A for 24 hr followed by treatment with or without 10 μM ISO or 50 μM FSK. Results were replicated in multiple experiments. ‘[’ indicates total HSL. ‘n.s.’ represents non-specific band. Arrow indicates CGI-58. (E) Immunoblots of whole cell lysates from 3T3-L1 adipocytes treated with or without 50 ng/ml TNFα or 100 μg/ml poly (I:C) for 24 hr followed by treatment with or without 10 μM ISO for 15 min in the presence or absence of pretreatment with increasing concentrations (0, 10, 50, and 200 μM) of amlexanox for 30 min.
(A) cAMP levels from 3T3-L1 adipocytes expressing empty vector, Flag-IKKε, or Flag-TBK1 treated with or without 50 μM FSK, 250 μM IBMX, or together for 15 min. (B) cAMP levels from 3T3-L1 adipocytes expressing empty vector, Flag-IKKε, or Flag-TBK1 treated with or without 10 μM ISO or 50 μM FSK together with or without 10 μM Zardaverine (Zarda) for 15 min. (C) 32P phospho-image of in vitro kinase reaction using either immunoprecipitated HA-PDE3B from HEK293T cells or 1 μg MBP (myelin basic protein) as a substrate with recombinant kinases as indicated. (D) Immunoblots of immunoprecipitation with anti-HA antibodies followed by treatment with or without CIP (top panel) and whole cell lysates (bottom panel) from Cos-1 cells co-expressing HA-PDE3B with Flag-IKKε/TBK1 or Flag-IKKε/TBK1 K38A. D.E. stands for dark exposure and L.E. stands for light exposure. (E) Immunoblots of GST-14-3-3 pulldown from HEK293T cells co-expressing HA-PDE3B with Flag-TBK1 or Flag-TBK1 K38A.
Obesity is accompanied by infiltration of proinflammatory macrophages into adipose tissue; these cells secrete inflammatory cytokines, such as TNFα, which generate insulin resistance by stimulating catabolic pathways (Hotamisligil, 2006; Lumeng et al., 2007; Ye and Keller, 2010; Ouchi et al., 2011; herein incorporated by reference in their entireties). Although TNFα is known to increase lipolysis in adipocytes (Zhang et al., 2002; Souza et al., 2003; Green et al., 2004; Plomgaard et al., 2008; herein incorporated by reference in their entireties), there is also evidence of a counterinflammatory response in obesity that may serve to repress energy expenditure (Gregor and Hotamisligil, 2011; Saltiel, 2012; Calay and Hotamisligil, 2013; Reilly et al., 2013; herein incorporated by reference in their entireties). Experiments were conducted during development of embodiments of the present invention using TNFα to model the inflammatory milieu of obese adipose tissue in cell culture to determine whether the cytokine might also regulate β-adrenergic signaling in this context. While short-term treatment with TNFα augmented the increase in cAMP produced by forskolin treatment, this effect declined after 12 hr. […] Thus, the catabolic effects of the proinflammatory cytokine TNFα in adipocytes are transient and followed by an inhibitory phase.
Treatment of 3T3-L1 adipocytes with TNFα for 24 hr induced the expression of IKKε and increased TBK1 phosphorylation at the active site in a manner that was dependent on the activity of IKKβ and the NFκB pathway (Reilly et al., 2013; herein incorporated by reference in its entirety). […]

[2] = test system: 3T3-L1 adipocytes; assay: Immunoblots of β-adrenergic/PKA signaling (HSL, perilipin, PKA substrate, p38 phosphorylation) in 3T3-L1 adipocytes; assay type: cell-based; details: treatment with Poly (I:C)
Experimental: as §1, with “Results were replicated in multiple experiments. ‘[’ indicates total HSL. ‘n.s.’ represents non-specific band.” left out
Experiments were conducted during development of embodiments of the present invention to determine whether the repression of β-adrenergic sensitivity produced by longer-term treatment with TNFα is due to increased activity of the noncanonical IKKs.

[3] = test system: 3T3-L1 adipocytes; assay: Glycerol release (lipolysis) from 3T3-L1 adipocytes; assay type: cell-based; details: for lipolysis (glycerol release): empty vector-expressing cells, 10 μM
Experimental: (§2) (A) Fold increase in Ucp1 expression in 3T3-L1 adipocytes expressing empty vector, Flag-IKKε, or Flag-IKKε K38A following treatment with or without 10 μM ISO (black bars) or 10 μM CL-316,243 (CL, gray bars) for 4 hr. (B) Glycerol release from 3T3-L1 adipocytes expressing empty vector (white bars), Flag-IKKε (black bars), or Flag-IKKε K38A (gray bars) treated with or without 10 μM ISO or 10 μM CL. (C) Immunoblots of whole cell lysates from FIG. 1B. Results were replicated in triplicate. D.E. stands for dark exposure and L.E. stands for light exposure. (D) Immunoblots of whole cell lysates from 3T3-L1 adipocytes expressing empty vector or Flag-IKKε treated with or without 50 μM FSK for 15 min. (E) cAMP levels from 3T3-L1 adipocytes expressing empty vector, Flag-IKKε, or Flag-IKKε K38A treated with or without 10 μM ISO or 50 μM FSK for 15 min.
as §1
The obesity-dependent increase was modeled in the noncanonical IKKs by overexpressing IKKε in 3T3-L1 adipocytes, followed by assay of glycerol release in response to ISO or CL-316,243. […] Overexpression of TBK1 reduced phosphorylation of HSL in response to isoproterenol or the adenylyl cyclase activator, forskolin (FIG. 1). Identical results were obtained when IKKε was overexpressed in 3T3-L1 adipocytes stimulated with forskolin (FIG. 1D), as detected by western blotting with an anti-phospho-PKA substrate motif antibody. […]

[4] = test system: 3T3-L1 adipocytes; assay: Ucp1 gene expression in 3T3-L1 adipocytes; assay type: cell-based; details: empty vector-expressing cells; 10 μM for 4 hr; treated relative to control samples
Experimental: as §2
Sympathetic activation of adipose tissue is involved in maintaining energy balance by stimulating lipolysis and fat oxidation (Coppack et al., 1994; Langin, 2006; Festuccia et al., 2011; herein incorporated by reference in their entireties). Activation of β-adrenergic signaling by either β-adrenergic agonists or cold exposure in white and brown adipose tissue initiates a cascade of events through cyclic AMP (cAMP), culminating in the transcriptional upregulation of Ucp1, which results in increased proton leak and energy expenditure (Himms-Hagen et al., 2000; Cao et al., 2004; Yehuda-Shnaidman et al., 2010; herein incorporated by reference in their entireties). […] This effect was further analyzed by overexpressing IKKε in 3T3-L1 adipocytes and examining Ucp1 gene expression after treatment with the non-selective β-adrenergic agonist, isoproterenol (ISO), or the β3-adrenergic agonist, CL-316,243. Fold difference in Ucp1 gene expression was calculated by normalization of relative Ucp1 mRNA levels in treated relative to control samples. […] The induction of Ucp1 gene expression in response to ISO or CL-316,243 was blunted when WT IKKε was overexpressed in these cells. […]

[5] = test system: diet-induced obese mice; assay: Serum FFA and glycerol after CL-316,243 injection in ND- or HFD-fed mice; assay type: in vivo; details: normal diet mice, vehicle and amlexanox-treated; 15 min after IP CL-316,243 injection
Experimental: (A) Fold increase in serum FFA (left panel) and glycerol (right panel) levels 15 min after CL-316,243 injection in ND- or HFD-fed mice treated with amlexanox or vehicle control for 4 days. (B) Glycerol release from ex vivo epididymal (left panel) and inguinal (right panel) WATs after 1 hr pretreatment with amlexanox or vehicle. CL-316,243 treatment was started at time zero. (C) Immunoblots in inguinal WAT lysates from FIG. 5B after 60 min of CL-316,243 treatment. (D) cAMP levels in epididymal WAT 20 min after CL-316,243 (CL) or saline control injection in HFD-fed mice treated with amlexanox or vehicle control for 4 days. (E) Immunoblots in epididymal WAT 5 min after CL-316,243 or saline control injection in HFD-fed mice treated with amlexanox or vehicle control for 4 days. (F) Relative oxygen comsumption of mice in each treatment group.
To test the functional importance of the noncanonical IKKs in maintaining energy balance in vivo, experiments were conducted during development of embodiments of the present invention to investigate whether the administration of a selective inhibitor of IKKε and TBK1, amlexanox, can reverse diet-induced catecholamine resistance in rodentsMice were fed a high fat or normal diet, treated them with amlexanox by oral gavage for 4 days (prior to the point when weight loss is seen), and then gave a single intraperitoneal (IP) injection of the β3-adrenergic agonist CL-316,243. Injection of CL-316,243 stimulated a threefold increase in serum FFA and glycerol levels in both vehicle and amlexanox-treated mice on normal diet (ND).

Poly (I:C)
stimulation of cAMP production in response to β-adrenergic stimulation ([1]; treatment with Poly (I:C)): reduced | stimulation of phosphorylation in response to β-adrenergic stimulation [2]: reduced | stimulation of lipolysis in response to β-adrenergic stimulation ([3]; treatment with Poly (I:C)): reduced

COc1cc2ncn(-c3cc(OCc4ccccc4S(C)(=O)=O)c(C#N)s3)c2cc1OC [CAY10576]
rescue of TNFα-decreased forskolin-stimulated cAMP production ([1]; preincubation with 1 μM CAY10576, 100 ng/ml TNFα 24 hr, 50 μM FSK): largely rescued

CC(C)Cn1c(=O)n(C)c(=O)c2[nH]cnc21 [IBMX]
cAMP production in response to forskolin in adipocytes expressing IKKε or TBK1 ([1]; 250 μM IBMX, 50 μM FSK, 15 min): rescued the full stimulation of cAMP production

C[C@H](Cc1ccc2c(c1)OC(C(=O)[O-])(C(=O)[O-])O2)NC[C@H](O)c1cccc(Cl)c1.[Na+].[Na+] [CL-316,243]
increase in Ucp1 mRNA levels [4]: twofold | lipolysis (glycerol release) [3]: increased lipolysis | increase in serum FFA levels [5]: threefold | increase in serum glycerol levels [5]: threefold

CC(C)NCC(O)c1ccc(O)c(O)c1 (centres unmarked) [isoproterenol]
increase in Ucp1 mRNA levels [4]: 1.6 fold | lipolysis (glycerol release) [3]: increased lipolysis

— patent US20150224089A1, “COMBINATIONS OF IKKi/TBK1 INHIBITORS WITH BETA ADRENERGIC AGONISTS OR SYMPATHETIC NERVOUS SYSTEM ACTIVATORS” (THE REGENTS OF THE UNIVERSITY OF MICHIGAN, priority 2014, published 2015)
